Results from article PMC5512571 (Cancer cell, 2017).

Key:
Assay in all cases: in vitro kinase panel profiling
Format in all cases: biochemical
NUAK2 = target: T1, NUAK2 (Homo sapiens, UniProt Q9H093)
T1 sequence (Q9H093 1-628): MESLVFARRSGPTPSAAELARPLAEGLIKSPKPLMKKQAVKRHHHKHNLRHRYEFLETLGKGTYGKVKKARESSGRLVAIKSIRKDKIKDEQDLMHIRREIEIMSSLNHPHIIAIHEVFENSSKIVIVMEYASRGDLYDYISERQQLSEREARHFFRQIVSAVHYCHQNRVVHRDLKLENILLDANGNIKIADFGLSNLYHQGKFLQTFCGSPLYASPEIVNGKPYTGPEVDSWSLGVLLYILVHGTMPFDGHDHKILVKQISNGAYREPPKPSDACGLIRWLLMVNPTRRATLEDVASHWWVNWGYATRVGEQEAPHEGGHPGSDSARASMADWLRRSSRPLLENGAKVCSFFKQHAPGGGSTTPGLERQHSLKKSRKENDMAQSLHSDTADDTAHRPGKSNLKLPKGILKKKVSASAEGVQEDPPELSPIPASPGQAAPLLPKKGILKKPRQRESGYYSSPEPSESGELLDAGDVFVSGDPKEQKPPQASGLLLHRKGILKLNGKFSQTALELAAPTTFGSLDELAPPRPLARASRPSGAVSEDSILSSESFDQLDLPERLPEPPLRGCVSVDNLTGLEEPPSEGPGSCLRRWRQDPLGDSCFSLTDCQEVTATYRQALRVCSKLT

TNK1 = target: T2, TNK1 (Homo sapiens, UniProt Q13470)
T2 sequence (Q13470 1-666): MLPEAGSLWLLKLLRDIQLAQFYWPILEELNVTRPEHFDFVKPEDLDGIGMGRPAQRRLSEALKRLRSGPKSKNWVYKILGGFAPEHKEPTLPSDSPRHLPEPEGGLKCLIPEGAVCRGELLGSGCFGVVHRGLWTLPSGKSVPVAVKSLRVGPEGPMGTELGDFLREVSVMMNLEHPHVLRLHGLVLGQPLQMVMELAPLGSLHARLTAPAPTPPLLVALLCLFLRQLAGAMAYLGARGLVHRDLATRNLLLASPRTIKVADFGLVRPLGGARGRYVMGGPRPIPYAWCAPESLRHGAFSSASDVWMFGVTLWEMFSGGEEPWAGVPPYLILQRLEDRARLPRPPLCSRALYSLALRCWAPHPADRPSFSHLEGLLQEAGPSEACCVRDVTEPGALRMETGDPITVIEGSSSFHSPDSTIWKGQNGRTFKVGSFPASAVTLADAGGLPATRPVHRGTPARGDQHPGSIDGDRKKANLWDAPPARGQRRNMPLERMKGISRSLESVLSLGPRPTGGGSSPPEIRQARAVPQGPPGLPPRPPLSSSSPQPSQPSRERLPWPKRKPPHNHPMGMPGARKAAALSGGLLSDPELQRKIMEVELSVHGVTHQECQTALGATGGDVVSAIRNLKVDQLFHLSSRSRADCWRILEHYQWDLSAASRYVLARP

TYK2 = TYK2 (Homo sapiens, UniProt P29597)
JAK2 = JAK2 (Homo sapiens, UniProt O60674)
LRRK2 = LRRK2 (Homo sapiens, UniProt Q5S007)
FLT3 = FLT3 (Homo sapiens, UniProt P36888)
NUAK1 = target: T3, NUAK1 (Homo sapiens, UniProt O60285)
T3 sequence (O60285 1-661): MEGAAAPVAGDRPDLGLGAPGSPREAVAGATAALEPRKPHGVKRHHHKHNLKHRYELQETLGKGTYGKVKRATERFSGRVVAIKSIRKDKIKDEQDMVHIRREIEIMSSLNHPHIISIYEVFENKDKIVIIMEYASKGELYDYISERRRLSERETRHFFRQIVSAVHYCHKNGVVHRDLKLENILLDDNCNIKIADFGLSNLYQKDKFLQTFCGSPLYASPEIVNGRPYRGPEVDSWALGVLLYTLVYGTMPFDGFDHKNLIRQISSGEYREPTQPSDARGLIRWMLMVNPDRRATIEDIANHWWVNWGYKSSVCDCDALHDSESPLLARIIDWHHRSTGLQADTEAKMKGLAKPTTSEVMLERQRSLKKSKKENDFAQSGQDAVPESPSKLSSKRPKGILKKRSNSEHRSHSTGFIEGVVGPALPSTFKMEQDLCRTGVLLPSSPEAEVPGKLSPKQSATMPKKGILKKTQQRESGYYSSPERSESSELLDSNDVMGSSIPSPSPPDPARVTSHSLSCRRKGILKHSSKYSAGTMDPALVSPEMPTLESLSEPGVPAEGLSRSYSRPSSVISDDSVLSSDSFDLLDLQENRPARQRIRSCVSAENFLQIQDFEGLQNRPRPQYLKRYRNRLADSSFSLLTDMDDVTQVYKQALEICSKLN

JAK1 = JAK1 (Homo sapiens, UniProt P23458)
JAK3 = target: T4, JAK3 (Homo sapiens, UniProt P52333)
T4 sequence (P52333 1-1124): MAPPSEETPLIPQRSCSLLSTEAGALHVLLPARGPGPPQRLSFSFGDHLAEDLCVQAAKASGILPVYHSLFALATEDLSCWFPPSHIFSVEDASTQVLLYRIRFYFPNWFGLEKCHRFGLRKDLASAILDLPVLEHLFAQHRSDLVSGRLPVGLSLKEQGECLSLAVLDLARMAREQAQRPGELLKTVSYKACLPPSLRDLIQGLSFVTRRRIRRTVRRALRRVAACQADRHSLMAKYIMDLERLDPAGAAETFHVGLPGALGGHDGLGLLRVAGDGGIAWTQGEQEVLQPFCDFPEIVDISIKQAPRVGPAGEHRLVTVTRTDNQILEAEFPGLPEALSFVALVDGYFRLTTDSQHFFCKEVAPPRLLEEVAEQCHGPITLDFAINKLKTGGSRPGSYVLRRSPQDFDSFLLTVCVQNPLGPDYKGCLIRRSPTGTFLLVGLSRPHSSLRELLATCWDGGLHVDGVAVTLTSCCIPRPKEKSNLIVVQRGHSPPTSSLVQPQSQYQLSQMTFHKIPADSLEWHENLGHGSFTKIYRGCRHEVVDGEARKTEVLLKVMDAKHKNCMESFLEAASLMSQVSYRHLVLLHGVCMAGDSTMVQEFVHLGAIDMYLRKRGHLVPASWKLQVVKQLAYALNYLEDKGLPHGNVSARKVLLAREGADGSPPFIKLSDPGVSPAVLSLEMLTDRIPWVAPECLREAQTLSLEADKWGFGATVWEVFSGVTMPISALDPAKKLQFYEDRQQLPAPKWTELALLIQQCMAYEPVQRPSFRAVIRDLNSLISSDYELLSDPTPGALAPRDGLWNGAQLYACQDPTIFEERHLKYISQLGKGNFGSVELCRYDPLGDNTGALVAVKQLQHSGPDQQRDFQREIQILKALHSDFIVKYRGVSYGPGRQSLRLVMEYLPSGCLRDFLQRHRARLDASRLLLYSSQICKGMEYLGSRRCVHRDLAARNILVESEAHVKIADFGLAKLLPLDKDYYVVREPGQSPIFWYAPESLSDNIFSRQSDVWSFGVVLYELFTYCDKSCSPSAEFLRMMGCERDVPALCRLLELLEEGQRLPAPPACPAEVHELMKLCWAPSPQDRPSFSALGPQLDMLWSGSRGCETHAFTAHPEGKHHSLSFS

Measured: % inhibition at 250 nM

JAK2, sequence (O60674 whole entry): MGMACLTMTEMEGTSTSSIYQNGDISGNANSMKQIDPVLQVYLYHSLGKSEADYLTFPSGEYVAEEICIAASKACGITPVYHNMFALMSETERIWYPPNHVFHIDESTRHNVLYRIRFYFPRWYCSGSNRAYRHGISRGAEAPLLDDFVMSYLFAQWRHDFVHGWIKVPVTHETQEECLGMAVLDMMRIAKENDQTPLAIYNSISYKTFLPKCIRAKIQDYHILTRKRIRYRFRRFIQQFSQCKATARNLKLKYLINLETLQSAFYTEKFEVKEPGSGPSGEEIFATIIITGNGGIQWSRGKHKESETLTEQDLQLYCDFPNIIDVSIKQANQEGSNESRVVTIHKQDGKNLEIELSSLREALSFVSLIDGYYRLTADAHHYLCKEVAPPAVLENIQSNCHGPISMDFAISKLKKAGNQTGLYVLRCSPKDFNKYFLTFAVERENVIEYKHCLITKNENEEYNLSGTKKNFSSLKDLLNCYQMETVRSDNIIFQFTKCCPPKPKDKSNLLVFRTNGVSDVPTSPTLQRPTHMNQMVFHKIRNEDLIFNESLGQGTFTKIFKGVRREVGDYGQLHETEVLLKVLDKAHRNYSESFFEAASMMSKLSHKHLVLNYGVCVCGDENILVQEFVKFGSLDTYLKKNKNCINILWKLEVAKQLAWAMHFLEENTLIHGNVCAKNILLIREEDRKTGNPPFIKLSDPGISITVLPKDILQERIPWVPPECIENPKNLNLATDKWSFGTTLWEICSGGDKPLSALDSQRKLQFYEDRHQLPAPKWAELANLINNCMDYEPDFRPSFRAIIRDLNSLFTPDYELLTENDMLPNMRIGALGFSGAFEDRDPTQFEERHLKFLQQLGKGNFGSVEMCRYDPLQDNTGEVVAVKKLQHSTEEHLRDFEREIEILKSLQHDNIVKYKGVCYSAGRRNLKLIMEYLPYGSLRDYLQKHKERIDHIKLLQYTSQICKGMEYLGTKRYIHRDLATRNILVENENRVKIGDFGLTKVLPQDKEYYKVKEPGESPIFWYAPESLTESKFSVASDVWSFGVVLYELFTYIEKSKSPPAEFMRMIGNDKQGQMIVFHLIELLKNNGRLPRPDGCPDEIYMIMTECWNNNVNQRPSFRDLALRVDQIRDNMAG
FLT3, sequence (P36888 27-993): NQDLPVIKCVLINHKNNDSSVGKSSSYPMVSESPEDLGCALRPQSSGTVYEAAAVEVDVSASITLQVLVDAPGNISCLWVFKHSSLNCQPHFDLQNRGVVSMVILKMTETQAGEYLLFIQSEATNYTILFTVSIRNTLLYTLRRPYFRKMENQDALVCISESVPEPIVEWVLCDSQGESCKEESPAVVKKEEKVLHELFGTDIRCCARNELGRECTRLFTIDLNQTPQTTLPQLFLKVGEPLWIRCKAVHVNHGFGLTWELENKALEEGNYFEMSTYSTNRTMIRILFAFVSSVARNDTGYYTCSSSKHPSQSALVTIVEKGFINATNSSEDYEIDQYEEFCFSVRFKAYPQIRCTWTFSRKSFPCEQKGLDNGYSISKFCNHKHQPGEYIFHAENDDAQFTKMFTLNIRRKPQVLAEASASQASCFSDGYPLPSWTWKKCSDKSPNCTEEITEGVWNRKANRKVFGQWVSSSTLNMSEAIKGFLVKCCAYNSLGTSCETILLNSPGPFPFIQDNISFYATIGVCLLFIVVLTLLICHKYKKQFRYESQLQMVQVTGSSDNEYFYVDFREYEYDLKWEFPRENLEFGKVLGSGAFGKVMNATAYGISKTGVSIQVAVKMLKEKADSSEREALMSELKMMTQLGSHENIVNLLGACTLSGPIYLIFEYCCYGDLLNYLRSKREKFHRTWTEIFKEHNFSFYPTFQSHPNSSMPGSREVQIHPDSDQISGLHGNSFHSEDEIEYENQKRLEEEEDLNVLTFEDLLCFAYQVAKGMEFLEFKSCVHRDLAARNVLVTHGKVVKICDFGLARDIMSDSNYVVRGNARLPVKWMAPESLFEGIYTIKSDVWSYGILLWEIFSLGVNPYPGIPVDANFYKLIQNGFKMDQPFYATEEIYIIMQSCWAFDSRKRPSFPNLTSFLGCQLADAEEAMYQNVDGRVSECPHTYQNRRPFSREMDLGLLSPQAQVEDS
LRRK2, sequence (Q5S007 whole entry): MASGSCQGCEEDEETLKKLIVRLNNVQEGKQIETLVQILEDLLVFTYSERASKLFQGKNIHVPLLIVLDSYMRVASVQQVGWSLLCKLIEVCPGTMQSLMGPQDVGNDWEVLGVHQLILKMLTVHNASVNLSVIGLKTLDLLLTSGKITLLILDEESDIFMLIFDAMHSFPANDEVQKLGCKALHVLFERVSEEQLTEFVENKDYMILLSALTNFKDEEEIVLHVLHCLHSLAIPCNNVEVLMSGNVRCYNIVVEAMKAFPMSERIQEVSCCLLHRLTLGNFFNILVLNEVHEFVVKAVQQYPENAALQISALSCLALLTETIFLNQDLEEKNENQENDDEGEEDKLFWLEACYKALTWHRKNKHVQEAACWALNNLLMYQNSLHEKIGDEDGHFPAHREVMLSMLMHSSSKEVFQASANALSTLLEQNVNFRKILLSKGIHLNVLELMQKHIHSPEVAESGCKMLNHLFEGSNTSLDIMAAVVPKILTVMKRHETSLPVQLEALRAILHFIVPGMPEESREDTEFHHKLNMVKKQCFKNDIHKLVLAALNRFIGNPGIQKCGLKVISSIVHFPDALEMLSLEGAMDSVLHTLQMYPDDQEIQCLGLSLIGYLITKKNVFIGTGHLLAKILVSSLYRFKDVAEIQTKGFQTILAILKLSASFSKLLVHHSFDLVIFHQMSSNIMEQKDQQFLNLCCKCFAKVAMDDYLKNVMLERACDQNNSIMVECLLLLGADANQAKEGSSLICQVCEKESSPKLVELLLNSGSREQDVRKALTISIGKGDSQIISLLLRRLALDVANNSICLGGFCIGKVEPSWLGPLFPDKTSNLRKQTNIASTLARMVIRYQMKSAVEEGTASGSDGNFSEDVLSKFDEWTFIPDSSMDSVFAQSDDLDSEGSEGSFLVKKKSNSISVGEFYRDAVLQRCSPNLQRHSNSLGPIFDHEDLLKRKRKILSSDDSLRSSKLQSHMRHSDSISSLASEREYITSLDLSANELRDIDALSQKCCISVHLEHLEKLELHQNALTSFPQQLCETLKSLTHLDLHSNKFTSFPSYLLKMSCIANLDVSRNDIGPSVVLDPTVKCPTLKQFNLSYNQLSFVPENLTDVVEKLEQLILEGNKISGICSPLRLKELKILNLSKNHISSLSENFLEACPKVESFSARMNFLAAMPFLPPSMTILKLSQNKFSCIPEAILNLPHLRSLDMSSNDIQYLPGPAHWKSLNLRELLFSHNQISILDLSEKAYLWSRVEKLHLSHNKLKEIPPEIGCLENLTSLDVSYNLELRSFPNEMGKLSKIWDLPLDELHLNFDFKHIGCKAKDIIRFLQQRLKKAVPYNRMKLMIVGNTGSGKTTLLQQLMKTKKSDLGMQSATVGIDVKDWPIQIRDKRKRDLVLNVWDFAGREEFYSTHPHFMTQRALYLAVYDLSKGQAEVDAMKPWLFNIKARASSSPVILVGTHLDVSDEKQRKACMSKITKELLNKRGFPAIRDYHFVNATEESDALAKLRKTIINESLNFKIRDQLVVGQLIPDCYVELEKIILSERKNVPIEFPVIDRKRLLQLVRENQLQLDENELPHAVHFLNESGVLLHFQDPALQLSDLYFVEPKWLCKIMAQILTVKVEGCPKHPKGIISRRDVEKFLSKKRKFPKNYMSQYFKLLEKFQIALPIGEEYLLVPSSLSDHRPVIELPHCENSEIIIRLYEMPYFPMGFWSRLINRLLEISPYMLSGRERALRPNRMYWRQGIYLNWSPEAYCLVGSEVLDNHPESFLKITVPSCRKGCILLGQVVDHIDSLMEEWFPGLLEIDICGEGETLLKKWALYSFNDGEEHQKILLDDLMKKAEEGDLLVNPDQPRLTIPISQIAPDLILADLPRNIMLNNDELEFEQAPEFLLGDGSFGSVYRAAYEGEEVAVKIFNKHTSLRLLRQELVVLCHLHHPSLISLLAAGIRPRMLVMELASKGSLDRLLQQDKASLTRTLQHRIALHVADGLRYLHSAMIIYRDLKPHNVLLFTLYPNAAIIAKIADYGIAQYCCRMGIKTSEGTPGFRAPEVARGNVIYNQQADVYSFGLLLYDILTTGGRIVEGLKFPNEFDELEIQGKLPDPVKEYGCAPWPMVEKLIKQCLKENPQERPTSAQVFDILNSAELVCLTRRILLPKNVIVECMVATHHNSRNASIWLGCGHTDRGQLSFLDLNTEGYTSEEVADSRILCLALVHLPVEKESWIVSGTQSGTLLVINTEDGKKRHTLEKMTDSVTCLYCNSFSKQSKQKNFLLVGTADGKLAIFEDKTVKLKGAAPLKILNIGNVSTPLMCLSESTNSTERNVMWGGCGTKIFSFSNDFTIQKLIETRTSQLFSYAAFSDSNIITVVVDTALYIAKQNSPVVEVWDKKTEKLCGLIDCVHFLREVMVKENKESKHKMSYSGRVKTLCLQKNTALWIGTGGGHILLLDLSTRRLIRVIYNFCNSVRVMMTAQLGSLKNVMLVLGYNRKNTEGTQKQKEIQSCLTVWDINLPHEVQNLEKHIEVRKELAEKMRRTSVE

CN1CCN(c2ccc(Nc3ncc(Cl)c(NC[C@H]4CCCO4)n3)cc2)CC1 [(R)-9bMS]
> 90: NUAK2 | TNK1 | TYK2 | JAK2 | LRRK2 | FLT3 | NUAK1 | JAK1 | JAK3
